Reference: patent publication US11339156B2, “3-(1H-pyrazol-4-yl)pyridine allosteric modulators of the M4 muscarinic acetylcholine receptor” (Merck Sharp & Dohme Corp., priority 2017, dated 2022)
pEC50: −log10 of the molar value.

Target: T1, human M4 muscarinic acetylcholine receptor (Homo sapiens, UniProt P08173)
T1 construct: expressed in transfected cells
T1 sequence (P08173 1-479): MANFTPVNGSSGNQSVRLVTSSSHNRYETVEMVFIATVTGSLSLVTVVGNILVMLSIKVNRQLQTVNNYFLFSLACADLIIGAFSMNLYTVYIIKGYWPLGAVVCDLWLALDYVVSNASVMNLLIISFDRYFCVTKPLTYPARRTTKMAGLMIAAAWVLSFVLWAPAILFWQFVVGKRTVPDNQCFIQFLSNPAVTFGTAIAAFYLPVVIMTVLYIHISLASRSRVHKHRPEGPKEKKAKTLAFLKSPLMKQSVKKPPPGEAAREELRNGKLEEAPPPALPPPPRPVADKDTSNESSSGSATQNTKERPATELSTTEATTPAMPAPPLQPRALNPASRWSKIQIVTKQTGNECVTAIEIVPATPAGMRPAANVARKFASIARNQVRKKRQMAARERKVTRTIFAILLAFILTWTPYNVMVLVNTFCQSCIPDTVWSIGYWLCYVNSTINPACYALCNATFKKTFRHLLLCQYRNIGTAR
Test: human FLIPR-based M4 PAM assay (CHO-K1 cells with human M4 receptor and Gαqi5, calcium dye fluorescence)
Assay type: cell-based
Details: inflection point of 4 parameter logistic fit; acetylcholine added at 20% of maximum response; read-out: M4PAM IP
Description: In a typical experiment the M4 muscarinic acetylcholine receptor modulating activity of the compounds of the present invention was determined in accordance with the following experimental method. CHO-K1 cells stably transfected with human M4 receptor and chimeric G-protein Gαqi5 (Coward P, et al., Analytical Biochemistry, 270:242-248 (1999)) are thawed from liquid N2 storage, resuspended in growth medium, plated in black, clear bottom 384 well plates, and incubated 16-20 hours at 37° C., 5% CO2. On the day of assay, growth medium is removed, the cells are washed 2 times with wash buffer, and cells are incubated in dye loading buffer at 37° C., 5% CO2 for ˜1 hour. Following dye loading the cell plates are placed in a FLIPR Tetra instrument and while monitoring dye fluorescence (excitation […]), 10 uL of test substance at increasing concentrations is added, and fluorescence values are recorded for 4 min. Next, 10 uL of acetylcholine is added (final concentration calculated so as to achieve 20% of the maximum acetycholine response), and the fluorescence reading is continued for 3.5 min. In some cases, a third addition of acetylcholine (final concentration calculated to achieve 70% of the maximal acetylcholine response) is performed. The resulting dose response curves are fit to a 4 parameter logistic equation and the final result is determined as the inflection point (IP) of the curve
CHO-K1 cells stably transfected with human M4 receptor and chimeric G-protein Gαqi5 are thawed from liquid N2 storage, resuspended in growth medium, plated in black, clear bottom 384 well plates, and incubated 16-20 hours at 37° C., 5% CO2.
On the day of assay, growth medium is removed, the cells are washed 2 times with wash buffer, and cells are incubated in dye loading buffer at 37° C., 5% CO2 for ˜1 h. Following dye loading the cell plates are placed in a FLIPR Tetra instrument and while monitoring dye fluorescence ([…]), 10 uL of test substance at increasing concentrations is added, and fluorescence values are recorded for 4 min. Next, 10 uL of acetylcholine is added (final concentration calculated so as to achieve 20% of the maximum acetycholine response), and the fluorescence reading is continued for 3.5 min. In some cases, a third addition of acetylcholine (final concentration calculated to achieve 70% of the maximal acetylcholine response) is performed.

| Compound | pEC50 |
| --- | --- |
| CC(C)(Cn1cc(-c2ccc(C#N)nc2-c2ccn3ccnc3c2)cn1)C(F)F [Example 107, 5-[1-(3,3-difluoro-2,2-dimethylpropyl)-1H-pyrazol-4-yl]-6-imidazo[1,2-a]pyridin-7-ylpyridine-2-carbonitrile] | 7.49 |
| Cc1nnc2cc(-c3nc(C#N)ccc3-c3cnn(CC(C)(C)C)c3)ccn12 [Example 70, 5-[1-(2,2-dimethylpropyl)-1H-pyrazol-4-yl]-6-(3-methyl[1,2,4]triazolo[4,3-a]pyridin-7-yl)pyridine-2-carbonitrile] | 6.99 |
| Cc1cn2ccc(-c3nc(C#N)ccc3-c3cnn(CC4(F)CCC4)c3)cc2n1 [Example 118, 5-(1-((1-fluorocyclobutyl)methyl)-1H-pyrazol-4-yl)-6-(2-methylimidazo[1,2-a]pyridin-7-yl)picolinonitrile] | 7.51 |
| CC(C)(Cn1cc(-c2ccc(C(N)=O)nc2-c2ccn3ccnc3c2)cn1)C(F)(F)F [Example 132, 6-(imidazo[1,2-a]pyridin-7-yl)-5-(1-(3,3,3-trifluoro-2,2-dimethylpropyl)-1H-pyrazol-4-yl)picolinamide] | 6.60 |
| Cc1ccc(-c2cnn(CC34CCC(CC3)CC4)c2)c(-c2ccc3c(c2)C(=O)N(CC2CC2)C3)n1 [Example 12, 6-{3-[1-(bicyclo[2.2.2]oct-1-ylmethyl)-1H-pyrazol-4-yl]-6-methylpyridin-2-yl}-2-(cyclopropylmethyl)-2,3-dihydro-1H-isoindol-1-one] | 7.61 |
| CC(C)CCn1cc(-c2ccc(Cl)nc2-c2ccc3c(c2)C(=O)N(Cc2ccccc2F)C3)cn1 [Example 113, 6-{6-chloro-3-[1-(3-methylbutyl)-1H-pyrazol-4-yl]pyridin-2-yl}-2-(2-fluorobenzyl)-2,3-dihydro-1H-isoindol-1-one] | 7.27 |
| N#Cc1ccc(-c2cnn(CC3(C(F)(F)F)CC3)c2)c(-c2ccn3ccnc3c2)n1 [Example 56, 6-imidazo[1,2-a]pyridin-7-yl-5-(1-{[1-(trifluoromethyl)cyclo-propyl]methyl}-1H-pyrazol-4-yl)pyridine-2-carbonitrile] | 6.90 |
| N#Cc1ccc(-c2cnn(C[C@H]3C[C@@H]3C(F)(F)F)c2)c(-c2ccn3ccnc3c2)n1 [Example 25, 6-imidazo[1,2-a]pyridin-7-yl-5-(1-{[(1S,2S)-2-(trifluoromethyl)cyclo-propyl]methyl}-1H-pyrazol-4-yl)pyridine-2-carbonitrile] | 7.11 |
| Cc1nc(-c2ccc3c(c2)nc(C)n3C)c(-c2cnn(CC(C)(C)C(F)(F)F)c2)cc1F [Example 131, 5-(5-fluoro-6-methyl-3-(1-(3,3,3-trifluoro-2,2-dimethylpropyl)-1H-pyrazol-4-yl)pyridin-2-yl)-1,2-dimethyl-1H-benzo[d]imidazole] | 7.11 |
| Cc1cn2ncc(-c3nc(C#N)ccc3-c3cnn(CC(C)(C)C)c3)cc2n1 [Example 88, 5-[1-(2,2-dimethylpropyl)-1H-pyrazol-4-yl]-6-(2-methylimidazo[1,2-b]pyridazin-7-yl)pyridine-2-carbonitrile] | 7.16 |
| Cc1cn2ccc(-c3ncc(F)cc3-c3cnn(CC(C)(C)C(F)F)c3)cc2n1 [Example 106, 7-{3-[1-(3,3-difluoro-2,2-dimethylpropyl)-1H-pyrazol-4-yl]-5-fluoropyridin-2-yl}-2-methylimidazo[1,2-a]pyridine] | 7.16 |
| CC(C)CCn1cc(-c2cccnc2-c2ccc3c(c2)C(=O)NC3)cn1 [Example 74, 6-{3-[1-(3-methylbutyl)-1H-pyrazol-4-yl]pyridin-2-yl}-2,3-dihydro-1H-isoindol-1-one] | 6.47 |
| CC(C)(C)Cn1cc(-c2ccc(C(F)(F)F)nc2-c2ccn3ccnc3c2)cn1 [Example 83, 7-{3-[1-(2,2-dimethylpropyl)-1H-pyrazol-4-yl]-6-(trifluoromethyl)pyridin-2-yl}imidazo[1,2-a]pyridine] | 7.34 |
| CC(C)CCn1cc(-c2ccc(Cl)nc2-c2ccc3c(c2)C(=O)NC3)cn1 [Example 110, 6-(6-chloro-3-(1-isopentyl-1H-pyrazol-4-yl)pyridin-2-yl)isoindolin-1-one] | 7.40 |

Further molecules by rising pEC50, results first:

| pEC50 | Compound |
| --- | --- |
| 6.75 | Cc1nc2cc(-c3nc(C#N)ccc3-c3cnn(CC4(C(F)(F)F)CC4)c3)ccc2o1 [Example 55, 6-(2-methyl-1,3-benzoxazol-5-yl)-5-(1-{[1-(trifluoromethyl)cyclo-propyl]methyl}-1H-pyrazol-4-yl)pyridine-2-carbonitrile] |
| 6.83 | COc1ccc(-c2cnn(CC(C)(C)C)c2)c(-c2ccn3cc(C)nc3c2)n1 [Example 85, 7-{3-[1-(2,2-dimethylpropyl)-1H-pyrazol-4-yl]-6-methoxypyridin-2-yl}-2-methylimidazo[1,2-a]pyridine] |
| 6.87 | CC(C)(C)Cn1cc(-c2ccc(C#N)nc2-c2ccn3ncnc3c2)cn1 [Example 72, 5-[1-(2,2-dimethylpropyl)-1H-pyrazol-4-yl]-6-[1,2,4]triazolo[1,5-a]pyridin-7-ylpyridine-2-carbonitrile] |
| 6.97 | Cc1ccc(-c2cnn(CCC(C)C)c2)c(-c2ccc3c(c2)CNC3)n1 [Example 75, 5-{6-methyl-3-[1-(3-methylbutyl)-1H-pyrazol-4-yl]pyridin-2-yl}-2,3-dihydro-1H-isoindole] |
| 7.09 | Cc1nc2cc(-c3nc(C#N)ccc3-c3cnn(CC(F)C(C)(F)F)c3)ccc2n1C (stereo not drawn) [Example 32, 6-(1,2-dimethyl-1H-benzimidazol-5-yl)-5-[1-(2,3,3-trifluorobutyl)-1H-pyrazol-4-yl]pyridine-2-carbonitrile] |
| 7.15 | COCc1nc2cc(-c3nc(C#N)ccc3-c3cnn(CC(C)(C)C)c3)ccn2n1 [Example 105, 5-[1-(2,2-dimethylpropyl)-1H-pyrazol-4-yl]-6-[2-(methoxymethyl)[1,2,4]triazolo[1,5-a]pyridin-7-yl]pyridine-2-carbonitrile] |
| 7.18 | Cc1nc2cc(-c3nc(C#N)ccc3-c3cnn(CC4(C(C)(F)F)CC4)c3)ccc2n1C [Example 62, 5-(1-{[1-(1,1-difluoroethyl)cyclo-propyl]methyl}-1H-pyrazol-4-yl)-6-(1,2-dimethyl-1H-benzimidazol-5-yl)pyridine-2-carbonitrile] |
| 7.21 | C#Cc1ccc(-c2cnn(CC(C)(C)C)c2)c(-c2ccn3cc(C)nc3c2)n1 [Example 123, 7-(6-ethynyl-3-(1-neopentyl-1H-pyrazol-4-yl)pyridin-2-yl)-2-methylimidazo[1,2-a]pyridine] |
| 7.21 | CCC(F)(F)Cn1cc(-c2ccc(C#N)nc2-c2ccn3ccnc3c2)cn1 [Example 18, 5-[1-(2,2-difluorobutyl)-1H-pyrazol-4-yl]-6-imidazo[1,2-a]pyridin-7-ylpyridine-2-carbonitrile] |
| 7.24 | CC1(Cn2cc(-c3ccc(C#N)nc3-c3ccn4ccnc4c3)cn2)CC1(F)F (stereo not drawn) [Example 134, 5-(1-((2,2-difluoro-1-methylcyclopropyl)methyl)-1H-pyrazol-4-yl)-6-(imidazo[1,2-a]pyridin-7-yl)picolinonitrile] |
| 7.29 | Cc1nc2cc(-c3nc(C#N)ccc3-c3cnn(CC(C)(F)C(C)(F)F)c3)ccc2n1C (stereo not drawn) [Example 33, 6-(1,2-dimethyl-1H-benzimidazol-5-yl)-5-[1-(2,3,3-trifluoro-2-methylbutyl)-1H-pyrazol-4-yl]pyridine-2-carbonitrile] |
| 7.41 | Cc1ccc(-c2cnn(CC3(C)CCCCC3)c2)c(-c2cnc3c(c2)ncn3C)n1 [Example 5, 3-methyl-6-(6-methyl-3-{1-[(1-methylcyclohexyl)methyl]-1H-pyrazol-4-yl}pyridin-2-yl)-3H-imidazo[4,5-b]pyridine] |
| 7.64 | CC(C)CCn1cc(-c2ccc(Cl)nc2-c2ccc3c(c2)C(=O)N(Cc2ccc(O)cc2)C3)cn1 [Example 114, 6-{6-chloro-3-[1-(3-methylbutyl)-1H-pyrazol-4-yl]pyridin-2-yl}-2-(4-hydroxybenzyl)-2,3-dihydro-1H-isoindol-1-one] |
